Where a SMILES comes first, the peptide text is derived from it. [ ]: non-standard residue; d: D form.
What was measured:
[1] = tested on: rat; assay: rat tail flick test (method of D-Amour and Smith), analgesic activity; assay type: in vivo
Text: The representative polypeptide of this invention Tyr--D--Ala--Gly--Phe--D--Val--NH2, gave the following results in the reference standard rat tail flick test: […]

[2] = tested on: mouse vas deferens; settings: cited from earlier work
[3] = tested on: opiate receptor; settings: brain homogenates; cited from earlier work
[4] = tested on: guinea pig ileum; settings: cited from earlier work
[5] = tested on: rats; settings: injection in the brain ventricle in rats; cited from earlier work
[6] = intracerebroventricular; cited from earlier work

For CC(C)[C@@H](NC(=O)[C@H](Cc1ccccc1)NC(=O)CNC(=O)[C@@H](C)NC(=O)[C@@H](N)Cc1ccc(O)cc1)C(N)=O [Tyr--D--Ala--Gly--Phe--D--Val--NH2, L-tyrosyl-D-alanylglycyl-L-phenylalanyl-D-valine amide] (H-Y[dA]GF[dV]-NH2), which “No. showing analgesia/No. tested” value ([1]; intravenous 1.0 milligram/kilogram, 15 minutes after administration) is on record?
Its value is 2/6.

And the “No. showing analgesia/No. tested” value ([1]; intravenous 1.0 milligram/kilogram, 30 minutes after administration)?
The value was 1/6.

And the “No. showing analgesia/No. tested” value ([1]; intravenous 1.0 milligram/kilogram, 60 minutes after administration)?
Its value is 0/6.

What about the “No. showing analgesia/No. tested” value ([1]; intravenous 2.5 milligram/kilogram, 15 minutes after administration) of the same molecule?
Its value is 5/6.

What about the “No. showing analgesia/No. tested” value ([1]; intravenous 2.5 milligram/kilogram, 30 minutes after administration) of the same molecule?
The value was 3/5.

And the “No. showing analgesia/No. tested” value ([1]; intravenous 2.5 milligram/kilogram, 60 minutes after administration)?
The value was 3/5.

What about the “No. showing analgesia/No. tested” value ([1]; intravenous 5.0 milligram/kilogram, 15 minutes after administration) of the same molecule?
Its value is 6/6.

And the “No. showing analgesia/No. tested” value ([1]; intravenous 5.0 milligram/kilogram, 30 minutes after administration)?
The value was 5/6.

And the “No. showing analgesia/No. tested” value ([1]; intravenous 5.0 milligram/kilogram, 60 minutes after administration)?
Its value is 0/5.

What about the “No. showing analgesia/No. tested” value ([1]; intravenous .25 milligram/kilogram, 15 minutes after administration) of the same molecule?
Its value is 1/6.

And the “No. showing analgesia/No. tested” value ([1]; intravenous .25 milligram/kilogram, 30 minutes after administration)?
Its value is 0/6.

And the “No. showing analgesia/No. tested” value ([1]; intravenous .25 milligram/kilogram, 60 minutes after administration)?
Its value is 1/6.

What about the “No. showing analgesia/No. tested” value ([1]; intravenous .5 milligram/kilogram, 15 minutes after administration) of the same molecule?
Its value is 4/6.

What about the “No. showing analgesia/No. tested” value ([1]; intravenous .5 milligram/kilogram, 30 minutes after administration) of the same molecule?
The value was 4/6.

And the “No. showing analgesia/No. tested” value ([1]; intravenous .5 milligram/kilogram, 60 minutes after administration)?
Its value is 1/6.

What about the “No. showing analgesia/No. tested” value ([1]; subcutaneous 5.0 milligram/kilogram, 30 minutes after administration) of the same molecule?
Its value is 2/6.

And the “No. showing analgesia/No. tested” value ([1]; subcutaneous 5.0 milligram/kilogram, 60 minutes after administration)?
Its value is 1/6.

And the “No. showing analgesia/No. tested” value ([1]; subcutaneous 5.0 milligram/kilogram, 90 minutes after administration)?
The value was 0/6.

What about the “No. showing analgesia/No. tested” value ([1]; subcutaneous 5.0 milligram/kilogram, 120 minutes after administration) of the same molecule?
The value was 0/6.

What about the “No. showing analgesia/No. tested” value ([1]; subcutaneous 20.0 milligram/kilogram, 30 minutes after administration) of the same molecule?
Its value is 6/6.

And the “No. showing analgesia/No. tested” value ([1]; subcutaneous 20.0 milligram/kilogram, 60 minutes after administration)?
The value was 3/6.

And the “No. showing analgesia/No. tested” value ([1]; subcutaneous 20.0 milligram/kilogram, 90 minutes after administration)?
The value was 3/6.

And the “No. showing analgesia/No. tested” value ([1]; subcutaneous 20.0 milligram/kilogram, 120 minutes after administration)?
Its value is 2/6.

Which “block of electrically evoked contractions” value (shortened to “block”) [2] does the source give for “H--Tyr--Gly--Gly--Phe--Leu--OH [leucine-enkephalin]” here?
The value was “block electrically evoked contractions”.

What about the “inhibition of stereospecific receptor binding of 3H-naloxone” value [3] of the same molecule?
Its value is “inhibit the sterospecific receptor binding”.

And the “block” value [4]?
The value was “block electrically evoked contractions”.

And the analgesia [5]?
Its analgesia is “profound analgesia that is fully reversible by naloxone”.

For “H--Tyr--Gly--Gly--Phe--Met--OH [methionine-enkephalin]”, which “block” value [2] is on record?
The value was “block electrically evoked contractions”.

And the “inhibition of stereospecific receptor binding of 3H-naloxone” value [3]?
Its value is “inhibit the sterospecific receptor binding”.

And the “block” value [4]?
The value was “block electrically evoked contractions”.

And the analgesia [5]?
The analgesia was “profound analgesia that is fully reversible by naloxone”.

With Tyr--D--Ala--Gly--Phe--D--Leu as the molecule, how does the “activity when administered intracerebroventricularly” value [6] read?
Its value is “activity”.
